# Experimental data: ChEMBL document CHEMBL5338807, “Design and Synthesis of Bouchardatine Derivatives as a Novel AMP-Activated Protein Kinase Activator for the Treatment of Colorectal Cancer” (J Med Chem, 2023)
# Calls of active or inactive are those of the source. The rule behind the calls is not given here.
# Columns and labels:
# [1] = test system: RKO; assay: Antiproliferative activity against human RKO cells assessed as reduction in cell viability incubated for 24 hrs; assay type: functional, cell-based
# [2] = test system: RKO; assay: Effect on metabolism in human RKO cells assessed as enhancement of oxygen consumption rate at 0.1 uM measured after 24 hrs by seahorse analysis; assay type: functional, cell-based
# [3] = test system: DLD-1; assay: Antiproliferative activity against human DLD-1 cells assessed as reduction in cell viability incubated for 24 hrs; assay type: functional, cell-based; conditions: DLD-1, 24 h
# [4] = test system: HCT-116; assay: Antiproliferative activity against human HCT-116 cells assessed as reduction in cell viability incubated for 24 hrs; assay type: functional, cell-based; conditions: HCT-116, 24 h
# [5] = test system: SW480; assay: Antiproliferative activity against human SW480 cells assessed as reduction in cell viability incubated for 24 hrs; assay type: functional, cell-based; conditions: SW480, 24 h
# [6] = Cytotoxicity against human NCM460 cells assessed as reduction in cell viability incubated for 24 hrs; assay type: toxicity, cell-based
# [7] = Cytotoxicity against human LX2 cells assessed as reduction in cell viability incubated for 24 hrs; assay type: toxicity, cell-based; conditions: LX-2 cells
# [8] = Cytotoxicity against human L02 cells assessed as reduction in cell viability incubated for 24 hrs; assay type: toxicity, cell-based
# [9] = test system: RKO; assay: Antiproliferative activity against human RKO cells assessed as reduction in cell density at 0.1 uM measured after 16 hrs by RTCA assay; assay type: functional, cell-based
# [10] = test system: RKO; assay: Antiproliferative activity against human RKO cells assessed as cell killing at 0.5 uM measured after 16 hrs by RTCA assay; assay type: functional, cell-based
# [11] = test system: RKO; assay: Antiproliferative activity against human RKO cells assessed as inhibition of colony formation at 0.1 uM measured after 7 days by crystal violet staining based assay; assay type: functional, cell-based; conditions: time 7.0 day
# [12] = test system: RKO; assay: Inhibition of cell migration of human RKO cells at 0.1 uM incubated for 48 hrs by wound healing assay; assay type: functional, cell-based
# [13] = test system: RKO; assay: Effect on metabolism in human RKO cells assessed as oxygen consumption rate by measuring enhancement of basal respiration at 0.1 uM measured after 24 hrs by seahorse analysis; assay type: functional, cell-based
# [14] = test system: RKO; assay: Effect on metabolism in human RKO cells assessed as oxygen consumption rate by measuring enhancement of maximal respiration at 0.1 uM measured after 24 hrs by seahorse analysis; assay type: functional, cell-based
# [15] = test system: RKO; assay: Effect on metabolism in human RKO cells assessed as oxygen consumption rate by measuring enhancement of ATP production at 0.1 uM measured after 24 hrs by seahorse analysis; assay type: functional, cell-based
# [16] = test system: RKO; assay: Effect on metabolism in human RKO cells assessed as oxygen consumption rate by measuring enhancement of proton leak at 0.1 uM measured after 24 hrs by seahorse analysis; assay type: functional, cell-based
# [17] = test system: NCM460; assay: Effect on metabolism in human NCM460 cells assessed as change in extracellular acidification rate at 0.1 uM measured after 24 hrs by seahorse analysis; assay type: functional, cell-based
# [18] = test system: RKO; assay: Effect on energy metabolism in human RKO cells assessed as upregulation of ATP production incubated for 24 hrs by luminescence based analysis; assay type: functional, cell-based
# [19] = test system: RKO; assay: Effect on energy metabolism in human RKO cells assessed as increase in AMP level incubated for 24 hrs by luminescence based analysis; assay type: functional, cell-based
# [20] = test system: RKO; assay: Effect on energy metabolism in human RKO cells assessed as increase in mitochondrial membrane potential at 0.1 uM incubated for 24 hrs by rhodamine 123 staining based flow cytometric analysis; assay type: functional, cell-based
# [21] = test system: RKO; assay: Induction of mitochondrial damage in human RKO cells assessed as decrease in ROS level at 0.1 uM incubated for 24 hrs by DCFH-DA staining based flow cytometric analysis; assay type: functional, cell-based
# [22] = test system: RKO; assay: Upregulation of p-AMPK expression in human RKO cells at 0.1 uM incubated for 24 hrs by Western blotting analysis; assay type: functional, cell-based
# [23] = test system: RKO; assay: Upregulation of mitochondrial complex III in human RKO cells at 0.1 uM incubated for 24 hrs by Western blotting analysis; assay type: functional, cell-based
# [24] = test system: RKO; assay: Upregulation of mitochondrial complex V in human RKO cells at 0.1 uM incubated for 24 hrs by Western blotting analysis; assay type: functional, cell-based
# [25] = test system: RKO; assay: Antiproliferative activity against human RKO cells assessed as reduction in cell viability incubated for 24 hrs by propidium iodide staining based high-content screening method; assay type: functional
# [26] = test system: RKO; assay: Antiproliferative activity against human RKO cells assessed as reduction in cell viability incubated for 24 hrs in presence of oligomycin by propidium iodide staining based high-content screening method; assay type: functional
# [27] = test system: RKO; assay: Antiproliferative activity against human RKO cells assessed as reduction in cell viability incubated for 24 hrs in presence of FCCP by propidium iodide staining based high-content screening method; assay type: functional
# [28] = test system: RKO; assay: Antiproliferative activity against human RKO cells assessed as reduction in cell viability incubated for 24 hrs by propidium iodide staining based high-content screening method relative to control; assay type: functional
# [29] = test system: RKO; assay: Antiproliferative activity against human RKO cells assessed as reduction in cell viability incubated for 24 hrs in presence of oligomycin by propidium iodide staining based high-content screening method relative to control; assay type: functional
# [30] = test system: RKO; assay: Antiproliferative activity against human RKO cells assessed as reduction in cell viability incubated for 24 hrs in presence of FCCP by propidium iodide staining based high-content screening method relative to control; assay type: functional
# [31] = test system: RKO; assay: Antitumor activity against human RKO cells xenografted in BALB/nude mouse assessed as tumor growth inhibition at 10 mg/kg, ip administered once daily for 25 days; assay type: functional; conditions: 600 h, time 25 day
# [32] = Toxicity in BALB/nude mouse xenografted with human RKO cells assessed as body weight loss at 10 mg/kg, ip administered once daily for 25 days; assay type: organism-based; conditions: in vivo, 600 h, time 25 day
# [33] = test system: RKO; assay: Antitumor activity against human RKO cells xenografted in BALB/nude mouse assessed as activation of p-AMPKalpha at Thr172 residue in tumor tissue at 10 mg/kg, ip administered once daily for 25 days by immunohistochemical based microscopic analysis; assay type: functional, organism-based; conditions: time 25.0 day
# [34] = test system: RKO; assay: Antiproliferative activity against human RKO cells assessed as inhibition of colony formation at 1 uM measured after 7 days by crystal violet staining based assay; assay type: functional, cell-based; conditions: time 7.0 day
# [35] = test system: RKO; assay: Inhibition of cell migration of human RKO cells at 1 uM incubated for 48 hrs by wound healing assay; assay type: functional, cell-based
# [36] = test system: RKO; assay: Effect on metabolism in human RKO cells assessed as activation of oxidative phosphorylation at 1 uM measured after 24 hrs by seahorse analysis; assay type: functional, cell-based
# [37] = test system: RKO; assay: Effect on metabolism in human RKO cells assessed as inhibition of oxidative phosphorylation at 50 mM measured after 24 hrs by seahorse analysis; assay type: functional, cell-based
# [38] = test system: RKO; assay: Effect on energy metabolism in human RKO cells assessed as decrease in ATP production incubated for 24 hrs by luminescence based analysis; assay type: functional, cell-based
smiles,measurement,setting,value
CN(C)CCNc1nc(-c2[nH]c3ccc(F)cc3c2C=O)nc2ccccc12,IC50,[1],1.7 µM
CC(=O)c1c(-c2nc(NCCCN(C)C)c3ccccc3n2)[nH]c2ccccc12,IC50,[1],> 10 µM
CN(C)CCCNc1nc(-c2[nH]c3ccc(Cl)cc3c2C=O)nc2ccccc12,IC50,[1],4.1 µM
O=Cc1c(-c2nc(NCCc3ccc(O)cc3)c3ccccc3n2)[nH]c2ccccc12,Activity,[2],Active
same,IC50,[1],0.1 µM
same,IC50,[3],< 1 µM
same,IC50,[4],< 1 µM
same,IC50,[5],< 1 µM
same,IC50 at 24 h,[6],> 15 µM
same,IC50 at 24 h,[7],> 15 µM
same,IC50 at 24 h,[8],> 15 µM
same,Activity,[9],Active
same,Activity,[10],Active
same,inhibition,[11],Active
same,inhibition,[12],Active
same,Activity,[13],Active
same,Activity,[14],Active
same,Activity,[15],Active
same,Activity,[16],Active
same,Activity,[17],inactive
same,Activity,[18],Active
same,Activity,[19],Active
same,Activity,[20],Active
same,Activity,[21],Active
same,Activity,[22],Active
same,Activity,[23],Active
same,Activity,[24],Active
same,IC50,[25],0.07 µM
same,IC50,[26],> 1 µM
same,IC50,[27],> 1 µM
same,inhibition (INH),[28],92%
same,inhibition (INH),[29],52%
same,inhibition (INH),[30],25%
same,inhibition in vivo at 10 mg/kg,[31],58.2%
same,Activity,[32],Non-Toxic
same,Activity,[33],Active
O=Cc1c(-c2nc(NCC3CCC3)c3ccccc3n2)[nH]c2ccccc12,IC50,[1],6.2 µM
Cc1ccc2[nH]c(-c3nc(NCCN4CCCC4)c4ccccc4n3)c(C=O)c2c1,IC50,[1],0.7 µM
same,inhibition,[34],Active
same,inhibition,[35],Active
same,Activity,[36],Active
O=Cc1c(-c2nc(NCCc3ccccc3)c3ccccc3n2)[nH]c2ccccc12,IC50,[1],0.8 µM
same,inhibition,[34],Active
same,inhibition,[35],Active
same,Activity,[36],inactive
O=Cc1c(-c2nc(NCC(F)F)c3ccccc3n2)[nH]c2ccccc12,IC50,[1],7.9 µM
Cc1ccc2[nH]c(-c3nc(NCCCN(C)C)c4ccccc4n3)c(C=O)c2c1,IC50,[1],2 µM
Cc1ccc(S(=O)(=O)Nc2nc(-c3[nH]c4ccccc4c3C=O)nc3ccccc23)cc1,IC50,[1],> 10 µM
O=Cc1c(-c2nc(NC(=O)c3cccnc3)c3ccccc3n2)[nH]c2ccccc12,IC50,[1],> 10 µM
Cc1ccc(CCNc2nc(-c3[nH]c4ccccc4c3C=O)nc3ccccc23)cc1,IC50,[1],1.8 µM
CN(C)C(=N)NC(=N)N,inhibition,[37],Active
same,Activity,[38],Active
CN(C)CCCNc1nc(-c2[nH]c3ccccc3c2C(=O)O)nc2ccccc12,IC50,[1],5.3 µM
CN(C)CCCNc1nc(-c2[nH]c3ccc(F)cc3c2C=O)nc2ccccc12,IC50,[1],1.9 µM
O=Cc1c(-c2nc(NCCN3CCCC3)c3ccccc3n2)[nH]c2ccc(Cl)cc12,IC50,[1],2.5 µM
Cc1c(-c2nc(NCCN3CCCCC3)c3ccccc3n2)[nH]c2ccccc12,IC50,[1],> 10 µM
O=Cc1c(-c2nc3ccccc3c(=O)[nH]2)[nH]c2ccccc12,IC50,[1],> 10 µM
same,inhibition,[34],Active
same,inhibition,[35],Active
same,Activity,[36],Active
O=Cc1c(-c2nc(NCCc3ccc(C(F)(F)F)cc3)c3ccccc3n2)[nH]c2ccccc12,IC50,[1],4.2 µM
Cc1ccc2[nH]c(-c3nc(NCCN(C)C)c4ccccc4n3)c(C=O)c2c1,IC50,[1],0.7 µM
C=Cc1c(C)nc(-c2[nH]c3ccccc3c2C(C)=O)nc1NCCCN1CCCC1,IC50,[1],> 10 µM
O=Cc1c(-c2nc(NCCCC(=O)O)c3ccccc3n2)[nH]c2ccccc12,IC50,[1],> 10 µM
CN(C)CCCNc1nc(-c2[nH]c3ccccc3c2C=O)nc2ccccc12,IC50,[1],1.7 µM
same,inhibition,[34],Active
same,inhibition,[35],Active
same,Activity,[36],Active
CN(C)c1nc(-c2[nH]c3ccccc3c2C=O)nc2ccccc12,IC50,[1],4.8 µM
O=Cc1c(-c2nc(NCCCC(F)(F)F)c3ccccc3n2)[nH]c2ccccc12,IC50,[1],4.6 µM
O=Cc1c(-c2nc(Nc3ccc(N4CCCCC4)cc3)c3ccccc3n2)[nH]c2ccccc12,IC50,[1],> 10 µM
